The results in this text go back to patent publication US12583861B2, “Derivatives of imidazo[4,5-d]pyridazine, their preparation and their therapeutic application” (SANOFI, priority 2021, dated 2026).

Counter-ions that a name gives are not always drawn.

One assay has as its target T1, human TLR8 (Homo sapiens, UniProt Q9NR97).
T1 construct: host or cells: HEK293 (HEK-Blue hTLR8)
T1 sequence (Q9NR97 27-1041): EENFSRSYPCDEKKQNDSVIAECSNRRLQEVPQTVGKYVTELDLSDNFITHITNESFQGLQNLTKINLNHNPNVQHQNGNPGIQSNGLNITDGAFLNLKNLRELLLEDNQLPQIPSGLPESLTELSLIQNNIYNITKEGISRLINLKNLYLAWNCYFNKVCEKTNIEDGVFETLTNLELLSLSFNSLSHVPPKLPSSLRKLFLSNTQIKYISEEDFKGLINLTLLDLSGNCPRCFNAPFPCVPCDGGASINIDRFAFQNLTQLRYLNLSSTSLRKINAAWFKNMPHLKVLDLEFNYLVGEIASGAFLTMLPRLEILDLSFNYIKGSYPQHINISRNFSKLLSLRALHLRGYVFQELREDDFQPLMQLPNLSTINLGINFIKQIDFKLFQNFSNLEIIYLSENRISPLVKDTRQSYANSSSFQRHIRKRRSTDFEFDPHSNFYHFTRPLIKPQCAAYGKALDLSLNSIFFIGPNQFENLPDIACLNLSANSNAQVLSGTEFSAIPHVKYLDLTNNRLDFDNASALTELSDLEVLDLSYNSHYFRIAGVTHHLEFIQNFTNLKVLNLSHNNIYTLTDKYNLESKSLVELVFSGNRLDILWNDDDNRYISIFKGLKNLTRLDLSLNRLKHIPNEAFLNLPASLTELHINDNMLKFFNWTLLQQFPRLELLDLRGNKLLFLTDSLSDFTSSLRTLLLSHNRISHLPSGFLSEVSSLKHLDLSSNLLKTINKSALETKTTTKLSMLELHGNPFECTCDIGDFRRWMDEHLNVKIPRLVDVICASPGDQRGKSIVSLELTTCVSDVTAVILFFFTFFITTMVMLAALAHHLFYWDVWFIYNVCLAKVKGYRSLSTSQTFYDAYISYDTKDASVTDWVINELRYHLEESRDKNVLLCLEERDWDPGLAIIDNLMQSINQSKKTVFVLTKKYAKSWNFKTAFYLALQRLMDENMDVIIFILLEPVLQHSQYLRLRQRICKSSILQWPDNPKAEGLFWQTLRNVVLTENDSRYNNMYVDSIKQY
In words: HEK-Blue hTLR8 reporter cell assay (SEAP, NF-kB/AP-1) for stimulation of human TLR8. The assay is classed as cell-based. The settings on record: HEK-Blue hTLR8 cells; for EC50: 24 h incubation, SEAP readout, read-out: TLR8_EC50. The essentials: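 HEK293 cells carrying hTLR8 and a SEAP reporter driven by NF-κB/AP-1 sites were seeded at 3.10E4 cells/well and held 18 to 24 h at 37° C., 5% CO2 before compound addition. Supernatant SEAP measured with QUANTI-Blue™.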

The target in a further assay is T2, human TLR7 (Homo sapiens, UniProt Q9NYK1).
T2 construct: host or cells: HEK293 (HEK-Blue hTLR7)
T2 sequence (Q9NYK1 27-1049): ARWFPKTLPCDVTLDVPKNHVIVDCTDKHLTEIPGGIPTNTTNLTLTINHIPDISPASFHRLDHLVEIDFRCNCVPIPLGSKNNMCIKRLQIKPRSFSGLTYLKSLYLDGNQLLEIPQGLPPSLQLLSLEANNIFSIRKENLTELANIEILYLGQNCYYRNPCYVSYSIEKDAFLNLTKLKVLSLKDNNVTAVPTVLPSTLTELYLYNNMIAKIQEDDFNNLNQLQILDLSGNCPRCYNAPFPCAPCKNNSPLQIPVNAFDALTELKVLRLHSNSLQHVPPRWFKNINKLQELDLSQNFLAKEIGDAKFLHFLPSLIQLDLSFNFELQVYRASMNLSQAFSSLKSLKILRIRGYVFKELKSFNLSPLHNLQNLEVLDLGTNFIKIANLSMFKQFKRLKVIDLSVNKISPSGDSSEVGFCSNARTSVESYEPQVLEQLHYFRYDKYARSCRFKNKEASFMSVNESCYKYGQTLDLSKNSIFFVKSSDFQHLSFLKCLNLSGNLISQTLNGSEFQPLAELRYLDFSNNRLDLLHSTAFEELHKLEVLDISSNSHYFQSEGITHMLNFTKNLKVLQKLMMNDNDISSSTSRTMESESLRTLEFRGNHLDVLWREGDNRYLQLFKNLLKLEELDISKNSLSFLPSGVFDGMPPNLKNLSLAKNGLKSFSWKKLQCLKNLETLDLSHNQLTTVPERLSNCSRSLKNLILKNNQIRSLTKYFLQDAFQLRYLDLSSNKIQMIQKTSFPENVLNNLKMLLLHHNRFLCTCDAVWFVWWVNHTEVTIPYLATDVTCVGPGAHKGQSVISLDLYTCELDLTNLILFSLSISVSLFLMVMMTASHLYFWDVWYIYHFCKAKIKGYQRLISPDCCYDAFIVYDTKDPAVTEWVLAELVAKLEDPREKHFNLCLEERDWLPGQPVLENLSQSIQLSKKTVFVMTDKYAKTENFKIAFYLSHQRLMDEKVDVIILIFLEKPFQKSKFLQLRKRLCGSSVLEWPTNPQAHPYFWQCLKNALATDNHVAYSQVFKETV
Nature of the assay: HEK-Blue hTLR7 reporter cell assay (SEAP, NF-kB/AP-1) for stimulation of human TLR7. Particulars: HEK-Blue hTLR7 cells; for EC50: 24 h incubation, SEAP readout, read-out: TLR7_EC50. The assay is classed as cell-based. The essentials:
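HEK293 cells expressing hTLR7 with NF-κB/AP-1-driven SEAP reporter, seeded 3.10E4 cells/well, pre-incubated 18–24 h, then exposed to 3-fold compound dilutions (0.01–20 μM) for 24 h at 37 °C. Supernatant SEAP read with QUANTI-Blue; EC50 as concentration giving 50% activation.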

Consider `CCCCc1nc2c(N)nnc(-c3ccoc3)c2n1Cc1ccc(OC)cc1` [Compound 67, 2-butyl-7-(furan-3-yl)-1-(4-methoxybenzyl)-1H-imidazo[4,5-d]pyridazin-4-amine], for which the results for the EC50 at human TLR8 and at human TLR7 were above 20 µM and 2.06 µM, respectively.
For `CCCCc1nc2c(N)nnc(OC3CCS(=O)(=O)C3)c2n1Cc1ccc(OC)cc1` (stereo not drawn) [Compound 68, 3-((4-amino-2-butyl-1-(4-methoxybenzyl)-1H-imidazo[4,5-d]pyridazin-7-yl)oxy)tetrahydrothiophene 1,1-dioxide], in that order: above 20 µM and 4.77 µM.
In the case of `CCCCc1nc2c(N)nnc(-c3cccn3C)c2n1Cc1ccc(OC)cc1` [Compound 70, 2-butyl-1-(4-methoxybenzyl)-7-(1-methyl-1H-pyrrol-2-yl)-1H-imidazo[4,5-d]pyridazin-4-amine hydrochloride], the figures for the EC50 at human TLR8 and on human TLR7 were above 20 µM and 4 µM, respectively.
Taken in the same sequence, the figures for `CCCCc1nc2c(N)nnc(Oc3ccccc3)c2n1Cc1ccc(OC)cc1` [Compound 72, 2-butyl-1-(4-methoxybenzyl)-7-phenoxy-1H-imidazo[4,5-d]pyridazin-4-amine] were above 20 µM and 3.76 µM.
Turning to `CCCCc1nc2c(N)nnc(C3=CCOC3)c2n1Cc1ccc(OC)cc1` [Compound 73, 2-butyl-7-(2,5-dihydrofuran-3-yl)-1-(4-methoxybenzyl)-1H-imidazo[4,5-d]pyridazin-4-amine], the EC50 at human TLR8 is above 20 µM; at human TLR7 it was 10.1 µM.
Take `CCCCc1nc2c(N)nnc(OC(C)C)c2n1Cc1cccnc1` [Compound 74, 2-butyl-7-isopropoxy-1-(pyridin-3-ylmethyl)-1H-imidazo[4,5-d]pyridazin-4-amine]: the EC50 amounted to 17.9 µM on human TLR8 and 0.586 µM at human TLR7.
Take `CCCCc1nc2c(N)nnc(OC(C)C)c2n1Cc1ccncc1` [Compound 76, 2-butyl-7-isopropoxy-1-(pyridin-4-ylmethyl)-1H-imidazo[4,5-d]pyridazin-4-amine 2,2,2-trifluoroacetate]: the values for the EC50 at human TLR8 and at human TLR7 were above 20 µM and 1.35 µM, respectively.
As to `CCCCc1nc2c(N)nnc(OC(C)C)c2n1CCCCCN` [Compound 77, 1-(5-aminopentyl)-2-butyl-7-isopropoxy-1H-imidazo[4,5-d]pyridazin-4-amine], the EC50 is above 20 µM at human TLR8 and 0.39 µM on human TLR7.
`CCCCc1nc2c(N)nnc(OC(C)C)c2n1CCC1CCNCC1` [Compound 78, 2-butyl-7-isopropoxy-1-(2-(piperidin-4-yl)ethyl)-1H-imidazo[4,5-d]pyridazin-4-amine]: the EC50 at human TLR8 was above 20 µM; on human TLR7, 7.74 µM.
For `CCCCc1nc2c(N)nnc(OC(C)C)c2n1CCN1CCNCC1` [Compound 79, 2-butyl-7-isopropoxy-1-(2-(piperazin-1-yl)ethyl)-1H-imidazo[4,5-d]pyridazin-4-amine], in that order: above 20 µM and 9.71 µM.
As for `CCCCc1nc2c(N)nnc(OC(C)C)c2n1Cc1ccccc1` [Compound 80, 1-benzyl-2-butyl-7-isopropoxy-1H-imidazo[4,5-d]pyridazin-4-amine hydrochloride], the EC50 on human TLR8 was above 20 µM; on human TLR7, 0.169 µM.
For `CCCCc1nc2c(N)nnc(OC(C)C)c2n1CC1CCCCC1` [Compound 81, 2-butyl-1-(cyclohexylmethyl)-7-isopropoxy-1H-imidazo[4,5-d]pyridazin-4-amine hydrochloride], in that order: above 20 µM and 0.117 µM.
Taken in the same sequence, the figures for `CCCCc1nc2c(N)nnc(OC(C)C)c2n1Cc1ccc(CNC2CCOCC2)cc1` [Compound 82, 2-butyl-7-isopropoxy-1-(4-(((tetrahydro-2H-pyran-4-yl)amino)methyl)benzyl)-1H-imidazo[4,5-d]pyridazin-4-amine hydrochloride] were 0.303 µM and 0.013 µM.
Turning to `CCCCc1nc2c(N)nnc(OC(C)C)c2n1Cc1ccc(CNC(C)C)cc1` [Compound 83, 2-butyl-7-isopropoxy-1-(4-((isopropylamino)methyl)benzyl)-1H-imidazo[4,5-d]pyridazin-4-amine dihydrochloride], the EC50 at human TLR8 was found to be 0.637 µM; on human TLR7 it was 0.008 µM.
Turning to `CCCCCCC(=O)NCc1ccc(Cn2c(CCCC)nc3c(N)nnc(OC(C)C)c32)cc1` [Compound 84, N-(4-((4-amino-2-butyl-7-isopropoxy-1H-imidazo[4,5-d]pyridazin-1-yl)methyl)benzyl)heptanamide], the values for the EC50 on human TLR8 and at human TLR7 were 1.81 µM and 0.263 µM, respectively.
For `CCCCc1nc2c(N)nnc(N3CCC(c4ccc(CO)cc4)C3)c2n1C` (stereo not drawn) [Compound 85, (4-(1-(4-amino-2-butyl-1-methyl-1H-imidazo[4,5-d]pyridazin-7-yl)pyrrolidin-3-yl)phenyl)methanol hydrochloride], in that order: 3.1 µM and 0.606 µM.
Taken in the same sequence, the figures for `CCCCc1nc2c(N)nnc(OC(C)C)c2n1C` [Compound 86, 2-butyl-7-isopropoxy-1-methyl-1H-imidazo[4,5-d]pyridazin-4-amine] were 6.96 µM and 4.4 µM.
Taken in the same sequence, the figures for `CCCCc1nc2c(N)nnc(NCc3ccc(CN)cc3)c2n1C` [Compound 87, N7-(4-(aminomethyl)benzyl)-2-butyl-1-methyl-1H-imidazo[4,5-d]pyridazine-4,7-diamine] were above 20 µM and 8.52 µM.
For `CCCCc1nc2c(N)nnc(NC(C)C)c2n1C` [Compound 88, 2-butyl-N7-isopropyl-1-methyl-1H-imidazo[4,5-d]pyridazine-4,7-diamine], the EC50 at human TLR8 was found to be 13.6 µM; on human TLR7, 2.98 µM.
For `CCCCc1nc2c(N)nnc(N(C)Cc3ccccc3)c2n1C` [Compound 90, N7-benzyl-2-butyl-N7,1-dimethyl-1H-imidazo[4,5-d]pyridazine-4,7-diamine], the values for the EC50 at human TLR8 and at human TLR7 were 12.7 µM and 10.6 µM, respectively.
Consider `CCCCc1nc2c(N)nnc(NCc3ccc(CN4CCN(C)CC4)cc3)c2n1C` [Compound 91, 2-butyl-1-methyl-N7-(4-((4-methylpiperazin-1-yl)methyl)benzyl)-1H-imidazo[4,5-d]pyridazine-4,7-diamine], for which the activation at 20 µM at human TLR8 (24 h, at 20000 nM) was 10%; on human TLR7 (24 h, at 20000 nM), 45%.
